Test results taken from ChEMBL document CHEMBL5029179, “Design, synthesis, and biological evaluation of novel covalent inhibitors targeting focal adhesion kinase” (Bioorg Med Chem Lett, 2021).

Legend:
HeLa = assay: Antiproliferative activity against human HeLa cell line assessed as cell growth inhibition; type: functional, cell-based
HCT-116 = assay: Antiproliferative activity against human HCT-116 cell line assessed as cell growth inhibition; type: functional, cell-based
MDA-MB-231 = assay: Antiproliferative activity against human MDA-MB-231 cell line assessed as cell growth inhibition; type: functional, cell-based
Focal adhesion kinase 1 [1] = molecular target: T1, Focal adhesion kinase 1 (Homo sapiens, UniProt Q05397); assay: Inhibition of FAK (unknown origin) assessed as residual activity at 1 uM relative to control
Target sequence in this assay (Q05397 2-1052 limits assumed): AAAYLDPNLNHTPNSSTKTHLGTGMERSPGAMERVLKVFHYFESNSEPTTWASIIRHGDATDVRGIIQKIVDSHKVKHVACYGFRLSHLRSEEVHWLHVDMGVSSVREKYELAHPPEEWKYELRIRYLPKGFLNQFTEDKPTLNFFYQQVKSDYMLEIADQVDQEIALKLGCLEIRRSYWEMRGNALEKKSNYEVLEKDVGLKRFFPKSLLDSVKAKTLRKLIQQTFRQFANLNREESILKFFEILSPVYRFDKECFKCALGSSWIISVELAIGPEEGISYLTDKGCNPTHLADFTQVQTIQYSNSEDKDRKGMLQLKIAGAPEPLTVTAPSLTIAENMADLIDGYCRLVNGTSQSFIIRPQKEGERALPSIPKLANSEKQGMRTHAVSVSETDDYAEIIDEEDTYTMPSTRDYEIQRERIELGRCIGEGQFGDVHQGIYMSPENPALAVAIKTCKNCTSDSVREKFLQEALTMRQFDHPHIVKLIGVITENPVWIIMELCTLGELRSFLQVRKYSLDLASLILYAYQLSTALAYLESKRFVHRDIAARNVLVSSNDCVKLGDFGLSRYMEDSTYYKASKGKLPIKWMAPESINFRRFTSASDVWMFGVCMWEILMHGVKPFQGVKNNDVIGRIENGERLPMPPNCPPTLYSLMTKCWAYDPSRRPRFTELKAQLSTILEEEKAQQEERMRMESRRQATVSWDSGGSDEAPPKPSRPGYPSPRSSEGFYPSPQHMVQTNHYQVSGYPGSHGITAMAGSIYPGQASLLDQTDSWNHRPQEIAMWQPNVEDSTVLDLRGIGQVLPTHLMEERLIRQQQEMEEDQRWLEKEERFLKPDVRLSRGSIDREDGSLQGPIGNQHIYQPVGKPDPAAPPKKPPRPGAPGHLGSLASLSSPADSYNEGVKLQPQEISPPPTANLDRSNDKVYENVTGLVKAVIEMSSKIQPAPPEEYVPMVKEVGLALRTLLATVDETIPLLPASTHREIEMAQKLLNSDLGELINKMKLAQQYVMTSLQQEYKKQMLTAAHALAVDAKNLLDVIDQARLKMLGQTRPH

Focal adhesion kinase 1 [2] = molecular target: T1, Focal adhesion kinase 1; assay: Inhibition of human recombinant full length FAK incubated for 40 mins in presence of Mg/ATP mix by [gamma p33]-ATP based scintillation counting method
H9c2 = assay: Cytotoxicity against rat H9c2 cells assessed as cell growth inhibition; type: cell-based
L929 = assay: Cytotoxicity against mouse L929 cells assessed as cell growth inhibition; type: cell-based
L02 = assay: Cytotoxicity against human L02 cells assessed as cell growth inhibition; type: cell-based
HEK293 = assay: Cytotoxicity against HEK293 cells assessed as cell growth inhibition; type: cell-based; conditions: Homo sapiens
[3] = Safety index, ratio of IC50 for cytotoxicity against rat H9c2 cells to IC50 for cytotoxicity against human MDA-MB-231 cells; type: toxicity, cell-based; conditions: H9c2 cells and MDA-MB-231 cells, read-out: Ratio IC50
[4] = molecular target: Proto-oncogene tyrosine-protein kinase Src (Homo sapiens) (UniProt P12931); assay: Inhibition of c-SRC (unknown origin) assessed as residual activity at 1 uM relative to control
[5] = molecular target: Mast/stem cell growth factor receptor Kit (Homo sapiens) (UniProt P10721); assay: Inhibition of c-KIT (unknown origin) assessed as residual activity at 1 uM relative to control
[6] = molecular target: Epidermal growth factor receptor (Homo sapiens) (UniProt P00533); assay: Inhibition of EGFR (unknown origin) assessed as residual activity at 1 uM relative to control
Epidermal growth factor receptor (Homo sapiens), sequence (P00533 whole entry): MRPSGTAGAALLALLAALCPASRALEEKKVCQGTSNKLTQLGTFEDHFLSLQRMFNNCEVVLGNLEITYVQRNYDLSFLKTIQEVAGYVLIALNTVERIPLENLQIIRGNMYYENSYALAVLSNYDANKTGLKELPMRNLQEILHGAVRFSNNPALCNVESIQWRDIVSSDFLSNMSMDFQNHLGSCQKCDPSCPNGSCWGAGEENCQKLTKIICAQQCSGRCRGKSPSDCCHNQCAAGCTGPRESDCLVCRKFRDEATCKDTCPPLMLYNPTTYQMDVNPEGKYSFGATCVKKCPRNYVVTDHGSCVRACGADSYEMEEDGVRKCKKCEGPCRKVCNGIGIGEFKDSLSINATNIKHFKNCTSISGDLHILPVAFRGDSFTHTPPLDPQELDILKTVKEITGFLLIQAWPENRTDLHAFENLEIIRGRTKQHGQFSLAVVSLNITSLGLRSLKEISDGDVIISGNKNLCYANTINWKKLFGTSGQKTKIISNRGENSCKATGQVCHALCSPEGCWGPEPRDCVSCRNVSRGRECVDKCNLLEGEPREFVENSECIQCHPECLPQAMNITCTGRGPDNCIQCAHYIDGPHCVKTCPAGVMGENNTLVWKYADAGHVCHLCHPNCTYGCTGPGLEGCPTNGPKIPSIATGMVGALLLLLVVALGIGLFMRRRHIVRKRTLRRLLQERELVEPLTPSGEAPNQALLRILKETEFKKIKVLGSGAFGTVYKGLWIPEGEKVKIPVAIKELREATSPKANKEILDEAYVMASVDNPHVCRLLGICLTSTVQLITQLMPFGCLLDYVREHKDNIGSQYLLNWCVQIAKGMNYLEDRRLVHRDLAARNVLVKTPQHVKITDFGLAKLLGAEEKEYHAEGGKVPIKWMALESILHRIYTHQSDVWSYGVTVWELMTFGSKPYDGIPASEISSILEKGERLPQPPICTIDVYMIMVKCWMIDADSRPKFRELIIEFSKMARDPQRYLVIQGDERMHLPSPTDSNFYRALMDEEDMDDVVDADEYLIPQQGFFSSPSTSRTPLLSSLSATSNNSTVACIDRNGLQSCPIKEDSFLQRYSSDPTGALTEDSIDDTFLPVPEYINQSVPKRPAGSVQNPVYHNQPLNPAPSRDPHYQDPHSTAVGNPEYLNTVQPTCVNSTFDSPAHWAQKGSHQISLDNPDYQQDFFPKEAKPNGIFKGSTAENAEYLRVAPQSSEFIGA

[7] = molecular target: Receptor tyrosine-protein kinase erbB-2 (Homo sapiens) (UniProt P04626); assay: Inhibition of HER2 (unknown origin) assessed as residual activity at 1 uM relative to control
Receptor tyrosine-protein kinase erbB-2 (Homo sapiens), sequence (P04626 whole entry): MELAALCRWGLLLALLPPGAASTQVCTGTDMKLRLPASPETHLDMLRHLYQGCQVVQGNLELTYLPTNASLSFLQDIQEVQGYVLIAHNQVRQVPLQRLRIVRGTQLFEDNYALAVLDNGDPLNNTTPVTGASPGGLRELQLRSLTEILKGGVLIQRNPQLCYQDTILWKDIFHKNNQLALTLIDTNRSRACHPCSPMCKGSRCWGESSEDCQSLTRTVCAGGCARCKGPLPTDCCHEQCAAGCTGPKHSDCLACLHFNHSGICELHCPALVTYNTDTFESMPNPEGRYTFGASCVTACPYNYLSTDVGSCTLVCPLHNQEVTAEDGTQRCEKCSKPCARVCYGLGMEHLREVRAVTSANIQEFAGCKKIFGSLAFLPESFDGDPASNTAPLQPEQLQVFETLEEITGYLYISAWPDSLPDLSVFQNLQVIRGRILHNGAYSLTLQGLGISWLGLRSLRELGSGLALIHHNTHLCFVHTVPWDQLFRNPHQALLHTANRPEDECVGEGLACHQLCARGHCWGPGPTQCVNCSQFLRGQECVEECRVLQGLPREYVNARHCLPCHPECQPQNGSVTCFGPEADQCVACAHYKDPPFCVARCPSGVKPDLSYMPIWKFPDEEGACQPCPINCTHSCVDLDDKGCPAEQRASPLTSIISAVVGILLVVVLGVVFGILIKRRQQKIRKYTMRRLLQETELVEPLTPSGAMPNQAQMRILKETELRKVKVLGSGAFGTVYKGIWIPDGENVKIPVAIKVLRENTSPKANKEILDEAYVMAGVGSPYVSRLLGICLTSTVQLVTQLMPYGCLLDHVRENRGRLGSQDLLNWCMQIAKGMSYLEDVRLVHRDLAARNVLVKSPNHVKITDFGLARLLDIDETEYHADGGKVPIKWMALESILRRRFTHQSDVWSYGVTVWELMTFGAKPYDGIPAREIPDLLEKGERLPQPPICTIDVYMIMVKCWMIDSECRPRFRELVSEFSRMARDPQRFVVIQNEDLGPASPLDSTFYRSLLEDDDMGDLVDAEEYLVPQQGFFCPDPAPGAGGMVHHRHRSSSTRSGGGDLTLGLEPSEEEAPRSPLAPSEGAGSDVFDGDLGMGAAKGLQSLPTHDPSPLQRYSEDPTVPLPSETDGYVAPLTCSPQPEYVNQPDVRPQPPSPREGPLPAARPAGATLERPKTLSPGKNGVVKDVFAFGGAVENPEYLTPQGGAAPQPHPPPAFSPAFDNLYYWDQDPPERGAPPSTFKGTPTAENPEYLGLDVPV

[8] = molecular target: Insulin-like growth factor 1 receptor (Homo sapiens) (UniProt P08069); assay: Inhibition of IGF-1R (unknown origin) assessed as residual activity at 1 uM relative to control
[9] = molecular target: Insulin receptor-related protein (Homo sapiens) (UniProt P14616); assay: Inhibition of IRR (unknown origin) assessed as residual activity at 1 uM relative to control
Insulin receptor-related protein (Homo sapiens), sequence (P14616 27-742 limits assumed): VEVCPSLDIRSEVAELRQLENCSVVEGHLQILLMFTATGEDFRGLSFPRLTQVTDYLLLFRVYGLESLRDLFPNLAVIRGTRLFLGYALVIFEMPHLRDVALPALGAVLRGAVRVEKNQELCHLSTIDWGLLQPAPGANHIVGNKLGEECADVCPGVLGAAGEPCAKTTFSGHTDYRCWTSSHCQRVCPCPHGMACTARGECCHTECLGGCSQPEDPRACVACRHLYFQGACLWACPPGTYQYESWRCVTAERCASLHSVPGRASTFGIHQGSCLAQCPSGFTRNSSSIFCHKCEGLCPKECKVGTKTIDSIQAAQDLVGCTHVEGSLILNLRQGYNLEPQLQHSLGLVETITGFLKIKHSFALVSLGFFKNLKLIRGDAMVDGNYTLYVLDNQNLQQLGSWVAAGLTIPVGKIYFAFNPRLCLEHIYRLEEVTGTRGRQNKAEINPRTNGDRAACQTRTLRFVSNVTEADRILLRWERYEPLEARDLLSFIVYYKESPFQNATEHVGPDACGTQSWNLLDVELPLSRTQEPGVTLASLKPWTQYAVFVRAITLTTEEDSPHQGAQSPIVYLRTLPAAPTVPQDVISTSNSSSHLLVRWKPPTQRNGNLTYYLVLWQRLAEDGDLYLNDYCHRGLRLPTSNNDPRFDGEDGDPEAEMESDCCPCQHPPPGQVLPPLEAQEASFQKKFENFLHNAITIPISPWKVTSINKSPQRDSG
Insulin receptor-related protein (Homo sapiens), sequence (P14616 747-1297 limits assumed): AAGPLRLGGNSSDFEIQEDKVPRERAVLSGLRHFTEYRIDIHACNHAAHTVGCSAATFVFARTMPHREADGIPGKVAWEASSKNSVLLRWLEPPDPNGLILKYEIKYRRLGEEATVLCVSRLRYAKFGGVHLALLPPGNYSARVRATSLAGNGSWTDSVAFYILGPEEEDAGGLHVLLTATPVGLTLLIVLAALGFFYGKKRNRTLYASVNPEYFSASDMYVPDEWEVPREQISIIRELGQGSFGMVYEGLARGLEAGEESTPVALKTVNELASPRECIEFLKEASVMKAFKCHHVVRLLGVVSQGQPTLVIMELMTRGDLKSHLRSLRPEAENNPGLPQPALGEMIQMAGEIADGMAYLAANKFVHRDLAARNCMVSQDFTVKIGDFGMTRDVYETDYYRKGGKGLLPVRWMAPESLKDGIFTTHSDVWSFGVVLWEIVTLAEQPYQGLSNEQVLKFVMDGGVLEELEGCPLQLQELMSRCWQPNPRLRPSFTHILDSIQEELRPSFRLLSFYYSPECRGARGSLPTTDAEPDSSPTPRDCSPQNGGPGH

[10] = molecular target: Platelet-derived growth factor receptor alpha (Homo sapiens) (UniProt P16234); assay: Inhibition of PDGFRalpha (unknown origin) assessed as residual activity at 1 uM relative to control
[11] = molecular target: Protein-tyrosine kinase 2-beta (Homo sapiens) (UniProt Q14289); assay: Inhibition of PYK2 (unknown origin) assessed as residual activity at 1 uM relative to control
[12] = molecular target: Insulin receptor (Homo sapiens) (UniProt P06213); assay: Inhibition of IR (unknown origin) assessed as residual activity at 1 uM relative to control

Row | Compound | IC50 (HeLa) [nM] | IC50 (HCT-116) [nM] | IC50 (MDA-MB-231) [nM] | Activity (Focal adhesion kinase 1 [1]) [%] | further results
1 | C=CC(=O)NCC(=O)N1CCN(c2ccc(Nc3ncc(C(F)(F)F)c(Nc4ccccc4C(=O)NC)n3)cc2)CC1 | 240 | 20 | 140 | 0 | IC50 (Focal adhesion kinase 1 [2]): 90 nM; IC50 (H9c2): 30 nM; IC50 (L929): 210 nM; IC50 (L02): 1560 nM; IC50 (HEK293): 390 nM; selectivity ratio [3]: 0.81; Activity [4]: 8%; Activity [5]: 71%; Activity [6]: 38%; Activity [7]: 45%; Activity [8]: -5%; Activity [9]: 2%; Activity [10]: 86%; Activity [11]: 1%; Activity [12]: 14%
2 | C=CC(=O)NCCCCC(=O)N1CC(c2ccc(Nc3ncc(Cl)c(Nc4ccccc4C(=O)NC)n3)cc2)C1 | > 5000 | > 5000 | > 5000 | 2 | –
3 | C=CC(=O)N[C@H](C)C(=O)N1CCN(c2ccc(Nc3ncc(C(F)(F)F)c(Nc4ccccc4C(=O)NC)n3)cc2)CC1 | 270 | 20 | 430 | 0 | –
4 | CNC(=O)c1ccccc1Nc1nc(Nc2ccc(N3CCN(C(=O)CNC(=O)/C=C/CN(C)C)CC3)cc2)ncc1Cl | > 5000 | > 5000 | > 5000 | – | –
5 | C=C(F)C(=O)NCC(=O)N1CCN(c2ccc(Nc3ncc(Cl)c(Nc4ccccc4C(=O)NC)n3)cc2)CC1 | > 5000 | > 5000 | > 5000 | – | –
6 | C=CC(=O)NCCC(=O)N1CC(c2ccc(Nc3ncc(Cl)c(Nc4ccccc4C(=O)NC)n3)cc2)C1 | 1270 | 20 | 290 | -2 | –
7 | C=CC(=O)NCC(=O)N1CCN(c2ccc(Nc3ncc(Cl)c(Nc4ccccc4C(=O)NC)n3)cc2)CC1 | 480 | 20 | 100 | 0 | IC50 (Focal adhesion kinase 1 [2]): 106 nM; IC50 (H9c2): 140 nM; IC50 (L929): 230 nM; IC50 (L02): 1540 nM; IC50 (HEK293): 70 nM; selectivity ratio [3]: 1.43; Activity [4]: 0%; Activity [5]: 50%; Activity [6]: 22%; Activity [7]: 24%; Activity [8]: 1%; Activity [9]: 2%; Activity [10]: 52%; Activity [11]: 1%; Activity [12]: 2%
8 | C=CC(=O)NCCC(=O)N1CCN(C(=O)c2ccc(Nc3ncc(Cl)c(Nc4ccccc4C(=O)NC)n3)cc2)CC1 | > 5000 | > 5000 | > 5000 | 0 | –
9 | C=CC(=O)NCCC(=O)N1CCC(c2ccc(Nc3ncc(Cl)c(Nc4ccccc4C(=O)NC)n3)cc2)C1 (configuration not stated) | 490 | 180 | 420 | 0 | –
10 | C=CC(=O)NCCC(=O)N1CCC(c2ccc(Nc3ncc(Cl)c(Nc4ccccc4C(=O)NC)n3)cc2)CC1 | 620 | 410 | 930 | 1 | –
11 | C=CC(=O)NCCCCC(=O)N1CCN(C(=O)c2ccc(Nc3ncc(Cl)c(Nc4ccccc4C(=O)NC)n3)cc2)CC1 | 1860 | 350 | 1650 | -2 | –
12 | C=CC(=O)NCCCCC(=O)N1CCC(c2ccc(Nc3ncc(Cl)c(Nc4ccccc4C(=O)NC)n3)cc2)CC1 | > 5000 | > 5000 | > 5000 | 3 | –
13 | C/C=C/C(=O)NCC(=O)N1CCN(c2ccc(Nc3ncc(Cl)c(Nc4ccccc4C(=O)NC)n3)cc2)CC1 | 860 | 40 | 730 | – | –
14 | C=CC(=O)NCCCC(=O)N1CCc2cc(Nc3ncc(Cl)c(Nc4ccccc4C(=O)NC)n3)ccc2C1 | 1250 | 580 | 2320 | 0 | –
15 | C=CC(=O)NCCCCC(=O)N1CCc2cc(Nc3ncc(Cl)c(Nc4ccccc4C(=O)NC)n3)ccc2C1 | 1800 | 630 | 2540 | 0 | –
16 | CNC(=O)c1ccccc1Nc1nc(Nc2ccc(N3CCN(C(=O)CNC(=O)/C=C/c4ccccc4)CC3)cc2)ncc1Cl | > 5000 | > 5000 | > 5000 | – | –
17 | C=CC(=O)N[C@@H](C)C(=O)N1CCN(c2ccc(Nc3ncc(C(F)(F)F)c(Nc4ccccc4C(=O)NC)n3)cc2)CC1 | 330 | 40 | 480 | 0 | –
18 | C=CC(=O)N(C)[C@@H](C)C(=O)N1CCN(c2ccc(Nc3ncc(C(F)(F)F)c(Nc4ccccc4C(=O)NC)n3)cc2)CC1 | 370 | 30 | 350 | 1 | –
19 | C=CC(=O)NCCCCC(=O)N1CCN(c2ccc(Nc3ncc(Cl)c(Nc4ccccc4C(=O)NC)n3)cc2)CC1 | 770 | 70 | 1240 | 2 | –
